Consider six compounds from patent US20120122956A1, “METHODS FOR INHIBITING AN[…] MULTI-ARM POLYMERIC CONJUGATES OF 7-ETHYL-10-HYDROXYCAMPTOTHECIN” (ENZON PHARMACEUTICALS, INC., priority 2009, published 2012).

Data set [1] is described as follows: Solubility in aqueous saline solution. It is filed as physicochemical.
Data set [2] can be described thus: Pharmacokinetics in tumor free Balb/C mice. Type of data set: in vivo. On the procedure: Tumor free Balb/C mice were injected with a single injection of 20 mg/kg 4armPEG-Gly-(7-ethyl-10-hydroxycamptothecin) conjugates. At various time points mice were sacrificed and plasma was analyzed for intact conjugates and released 7-ethyl-10-hydroxycamptothecin by HPLC. Pharmacokinetic analysis was done using non-compartmental analysis (WinNonlin).

A short description of another data set: Pharmacokinetics in rats. It is filed as in vivo. On the procedure:
Additionally, pharmacokinetic profiles of 4arm PEG-Gly-(7-ethyl-10-hydroxycamptothecin) were investigated in rats. In rats, dose levels of 3, 10 and 30 mg/kg (7-ethyl-10-hydroxycamptothecin equivalent) were used. The pharmacokinetic profiles in rats were consistent with those of mice.

The subject of data set [3] is CAMs grafted with tumor biopsy specimens of HTLA-230 or GI-LI-N xenografts. The note with it: for number of allantoic vessels radiating towards the tumor specimen: compared to control CAMs, CPT-11 10 or 40 mg/kg, compound 9 10 mg/kg (SN38 based). On the procedure: Protoc. 2006, 1:85-91. Mice were injected with the human NB cell line, HTLA-230 or GI-LI-N. Tumor biopsy specimens in size of 1-2 mm^3 were obtained from the xenografted mice and then grafted onto the CAMs. […] In the control group, the CAMs were incubated with PBS buffer. […] The CAMs were examined daily for 12 days and photographed in ovo with a stereomicroscope equipped with a camera and image analyzer system (Olympus Italia, Italy). CD31-positive microvessels were measured and normalized with that of the control group. Less CD31-positive microvessels mean greater antiangiogenic effects. Microvessel density was represented by the percentage of the total number of intersection points occupied by CD31-positive vessels cut transversely (diameter of 3-10 μm). Mean values±SD were determined for each analysis.

In data set [4] the test system is HIF-1α. The experiment in a line: HIF-1-dependent luciferase expression in U251-HRE human glioma xenografts. Type of data set: in vivo, mice. The note with it: for luminescence (HIF-1-dependent luciferase): single dose or multiple doses, 48 hour and 120 hour time points, not normalized. On the procedure:
The effect was measured by HIF-1-dependent luciferase expression in the U251-HRE xenografts.
(§1) The human glioma cell line, U251-HRE was kindly provided by Dr. Giovanni Melillo at National Cancer Institute (Frederick, Md., United States). The cells were transfected with luciferase reporter plasmids containing three copies of a canonical hypoxia response element (HRE) from the inducible nitric oxide synthase gene (Rapsirada, et al. 2000). U251-HRE tumors were established in the right axillary flank of female Harlan Sprague-Dawley nude mice (Harlan World, Indianapolis, Ind.) by subcutaneous injection of 1×10^7 U251-HRE cells/mouse. […] At each treatment time point, the tumor volume measurements were recorded and the tumor weights (mg) calculated using mg=[tumor length×(tumor width)]/2. […] To do so, the mice were injected intraperineally with 150 mg/kg of D-luciferin Firefly, potassium salt (Biosynth International, Inc., Itasca, Ill.). After 10 minutes, the mice were anesthetized via isofluorane gas and imaged using the Xenogen IVIS 100 Imaging Station (Xenogen Corp., Alameda, Calif.).

Another data set relates to U251-HRE xenografts. The note with it: zero to 125 hours of treatment (FIG. 13).
Excerpt: as §1

Data set [5] in a line: Hydrolysis in human plasma (conjugate half life, 7-ethyl-10-hydroxycamptothecin formation). Type of data set: in vitro ADME. The protocol:
In human plasma, 7-ethyl-10-hydroxycamptothecin was steadily released from the PEG conjugates with a doubling time of 22 to 52 minutes and the release appeared to be pH and concentration dependent as described in the following EXAMPLE 24.

Data set [6] can be described thus: 7-ethyl-10-hydroxycamptothecin formation from conjugates in mouse plasma. Type of data set: in vitro ADME.
The nature of data set [7]: 7-ethyl-10-hydroxycamptothecin formation from conjugates in rat plasma. It is filed as in vitro ADME.
In data set [8] the test system is human neuroblastoma cells (GI-LI-N) xenograft tumors. Nature of the data set: Tumor angiogenesis and invasion in orthotopic GI-LI-N xenografted mice (VEGF, CD31, MMP-2, MMP-9 staining). Type of data set: in vivo. On the procedure:
(§2) Xenograft tumors were established in mice by injecting human neuroblastoma cells (GI-LI-N) in the adrenal gland at day 0 (T0). […] The control group mice received HEPES-buffered saline solution. Histological examination was performed on the tumors removed from the mice at day 44 (T44).
The tissue sections were stained with antibodies against VEGF and CD31 to evaluate inhibition of angiogenesis. […] Cell nuclei were stained with DAPI. Morphometric analysis was performed on 9 randomly selected fields every 3 sections, observed at 200× magnification with an Olympus photomicroscope, using Image Analysis software (Olympus Italia). […] The sections were then washed twice in PBS and saturated with 2% BSA in PBS. In the morphometric analysis, the mean value in each image from the section, the final mean value for all the images and the SEM were calculated. The statistical significance of the differences between the mean values of the different experimental conditions was determined by Student's t test (GraphPad software). Findings were considered significant at P values <0.05 for all statistical evaluations.

Data set [9] shares this test system. The note with it: compared to mice treated with CAMPTOSAR; 10 mg/kg i.v. q2d×5. The protocol: as §2
The tissue sections removed from the treated mice in Example 27 were immunostained with TUNEL to evaluate apoptosis, and with primary antibody against histone H2ax (H2AFX) to evaluate DNA-damage dependent histone phosphorylation.

Data set [10] concerns HIF-1α. The protocol: (§3) The cancer cells were grown in complete DMEM or RPMI-1640 medium, supplemented with 10% heat-inactivated FCS, as described in Pastorino F. et al., Cancer Res. 2006, 66:10073-82, 2006; Pastorino F. et al., Clin. Cancer Res. 2008, 14:7320-9; and Brignole C, et al., J. Nat'l. Cancer Inst. 2006, 98:1142-57). […] In some experiments (FIGS. 14(B) and (C)), the cancer cells were pre-incubated with 0.15 mM of Desferal (DFX or Deferoxamine purchased from Novartis Pharma in Stein, Swizerland) for 6 hours to induce HIF-1α. […] The cells were collected and western blotting analysis was performed using cell lysates as described in Pagnan G. et al., Clin. Cancer Res. 2009, 15:1199-209). Monoclonal anti-p53 (clone PAb 1801) and anti-HIF-1α (clone 54) were purchased from BD Biosciences (Buccinasco, Mich., Italy). Anti-HIF-2α (clone ep190b), and an anti-GAPDH (clone 14c10) antibodies were from Novus Biologicals, Inc (Cambridge, UK) and Cell Signaling Technology (Danvers, Mass., US), respectively.

A further data set relates to HIF-2α. The note with it: GI-LI-N, HTLA-230, SH-SY5Y cells, 24 and 48 hours. On the procedure:
as §3

Where [11] appears, read: 7-ethyl-10-hydroxycamptothecin released from Compound 9, single injection 20 mg/kg of conjugate.
Setting [12] is: released 7-ethyl-10-hydroxycamptothecin.
[13] abbreviates: multiple doses at MTD (q2d×3, day 0, 2, 4; compound 9 10 mg/kg, CPT-11 40 mg/kg), 120 hours.
[14] abbreviates: 10 mg/kg i.v. q2d×5, tumors removed day 44.
The mark [15] stands for this setting: significantly when compared to Camptosar (P<0.05), 10 mg/kg i.v. q2d×5.

With `CCc1c2c(nc3ccc(O)cc13)-c1cc3c(c(=O)n1C2)COC(=O)[C@]3(O)CC` [7-ethyl-10-hydroxycamptothecin], in data set [1], the “Solubility in Saline” value is “^a7-ethyl-10-hydroxycamptothecin is not soluble in saline”. Further, in data set [2] (setting [11]), the AUC amounted to 98300 ng·h/mL, the CL turned out to be 3.37 mL/min/kg, the Cmax was 13200 ng/mL and the “Terminal t1/2” value came to 14.2 h. Moreover, the Vss in [2] (setting [11]) was found to be 3.094 L/kg. Also, the terminal elimination half-life in data set [2] (7-ethyl-10-hydroxycamptothecin released from the conjugate, mice) was 18 to 26 h. Besides, in [2] (released 7-ethyl-10-hydroxycamptothecin, mice), the Enterohepatic circulation entry is recorded as “observed”. Further, the “apparent elimination half life” value in “Pharmacokinetics in rats” (7-ethyl-10-hydroxycamptothecin released from 4armPEG-Gly conjugate) lay within 21 to 22 h. Also, in “Pharmacokinetics in rats” (setting [12]), the Enterohepatic circulation entry is “observed”, the clearance is 2.18 mL/min/kg and the “estimated Vss” value is 2.384 L/kg.
`CCc1c2c(nc3ccc(OC(=O)N4CCC(N5CCCCC5)CC4)cc13)-c1cc3c(c(=O)n1C2)COC(=O)[C@]3(O)CC` [CPT-11, reference compound]: the “number of allantoic vessels radiating towards the tumor specimen” value in data set [3] is given as “decreased”. Besides, the “downregulation of HIF-1α (luminescence normalized for tumor mass, change from baseline)” value was 15% with HIF-1α [4] (multiple doses (q2d×3, CPT-11 40 mg/kg), 48 hours) and 32% in the data set with HIF-1α [4] (setting [13]). In addition, the “luminescence (HIF-1-dependent luciferase)” value with HIF-1α [4] is “minimal effect”. Further, the “downregulation of HIF-1α” value in the data set on HIF-1α [4] (single injection (qd×1, CPT-11 80 mg/kg)) was “no downregulation”. Moreover, the tumor mass result in the data set with U251-HRE xenografts is recorded as “reduced”.
In the case of “^40K4arm-PEG-Sar-(20)-(7-ethyl-10-hydroxycamptothecin) [Compound 23]”, in data set [5], the “Doubling Time in Plasma, Human (7-ethyl-10-hydroxycamptothecin formation rate from conjugates)” value (“Doubling Time in Plasma, Human” below) is reported as 28.8 min and the “t1/2 in Human Plasma (PEG conjugate half life)” value (from here on “t1/2 in Human Plasma”) is 0.317 h. In addition, the “Doubling Time in Plasma, Mouse (7-ethyl-10-hydroxycamptothecin formation rate from conjugates)” value (“Doubling Time in Plasma, Mouse” for short) in data set [6] is reported as 43.4 min. In data set [7], the “Doubling Time in Plasma, Rat (7-ethyl-10-hydroxycamptothecin formation rate from conjugates)” value (shortened to “Doubling Time in Plasma, Rat”) stood at 481 min.
In the case of “^40k4arm-PEG-Gly(20)-(7-ethyl-10-hydroxycamptothecin) [Compound 9]”, the “number of allantoic vessels radiating towards the tumor specimen” value in data set [3] was “decreased”. Besides, the “number of radiating vessels which invade the tumor specimen” value in data set [3] (compound 9 compared to CPT-11, P<0.01) is “much less”. Besides, in data set [8] (setting [14]), the “CD31 expression in primary NB tumors” value is listed as “inhibited” and the “VEGF expression in primary NB tumors” value is “inhibited”. For the same compound, the “number of CD31-positive endothelial cells” value in [8] (compared to mice treated with CAMPTOSAR, P<0.05, 10 mg/kg i.v. q2d×5) is “decreased”. For the same compound, in [8] (setting [15]), the MMP-2 expression entry was “inhibited” and the MMP-9 expression result is on record as “inhibited”. Also, in [9], the “Histone H2ax staining in tumor tissues” value is “enhanced” and the “TUNEL staining in tumor tissues (apoptosis)” value is reported as “enhanced”. For the same compound, in the data set with HIF-1α [4] (setting [13]), the “downregulation of HIF-1α (luminescence normalized for tumor mass, change from baseline)” value came to 93%. The “downregulation of HIF-1α (luminescence normalized for tumor mass, change from baseline)” value with HIF-1α [4] (single dose (qd×1, compound 9 30 mg/kg), 48 hours) is given as 37%. For the same compound, the “downregulation of HIF-1α (luminescence normalized for tumor mass, change from baseline)” value with HIF-1α [4] (single dose (qd×1, compound 9 30 mg/kg), 120 hours) was 83%. For the same compound, the “luminescence (HIF-1-dependent luciferase)” value in the data set on HIF-1α [4] is given as “diminished luminescence”. In addition, in the data set on U251-HRE xenografts, the tumor mass result is reported as “reduced”. In the data set on HIF-1α [10] (human neuroblastoma cells, 24 hours (FIG. 14B)), the “constitutive HIF-1α protein levels” value is on record as “decreased”. Also, the “DFX-induced HIF-1α protein levels” value in the data set with HIF-1α [10] (pre-incubated with 0.15 mM Desferal 6 hours, then treated 24 hours (FIG. 14C)) is given as “decreased”. In addition, the “expression of HIF-2α protein” value in the data set with HIF-2α was “inhibited”.
Take “^40k4arm-PEG-Ala-(20)-(7-ethyl-10-hydroxycamptothecin) [Compound 12]”: the “Solubility in Saline” value in data set [1] is reported as 121 mg/mL. Further, in data set [5], the “Doubling Time in Plasma, Human” value is given as 51.9 min and the “t1/2 in Human Plasma” value amounted to 0.208 h. In addition, the “Doubling Time in Plasma, Mouse” value in data set [6] was 45.8 min. Further, the “Doubling Time in Plasma, Rat” value in data set [7] came out at 753 min.
With “^40k4arm-PEG-Met-(20)-(7-ethyl-10-hydroxycamptothecin) [Compound 18]”, in data set [1], the “Solubility in Saline” value is 142 mg/mL. In addition, in [5], the “Doubling Time in Plasma, Human” value is reported as 22.2 min and the “t1/2 in Human Plasma” value came out at 0.447 h. For the same compound, the “Doubling Time in Plasma, Mouse” value in [6] came to 41.9 min. Also, the “Doubling Time in Plasma, Rat” value in data set [7] is reported as 1920 min.
